According to patent US20230023092A1, “TREATMENT OF DEPRESSION AND OTHER VARIOUS DISORDERS WITH PSILOCYBIN” (COMPASS […], priority 2019, published 2023):

Test system: healthy subjects
Assay: Phase 1 study: adverse events (TEAEs, MedDRA coded)
Type: in vivo, human
Protocol: A Phase 1 randomized, double-blind, placebo-controlled study to evaluate the effect of psilocybin on cognitive and emotional processing as compared to placebo in healthy volunteers was conducted. The study investigated the short-term (Day 7) and long-term (Day 28) effects of moderate (10 mg) and high doses (25 mg) of psilocybin on key domains of cognition, such as episodic memory, attention, working and spatial memory, social cognition and elements of executive function, including cognitive flexibility.
Each subject was assigned 1 treatment bottle containing 5 capsules packaged in a double-blind fashion, depending on the randomized treatment arm, the bottle contained one of the following: • a. Psilocybin 10 mg: 2×5-mg oral psilocybin capsules plus 3×placebo capsules • b. Psilocybin 25 mg: 5×5-mg oral psilocybin capsules • c. Placebo: 5×placebo capsules
Each 5-mg oral psilocybin capsules comprised 5 mg crystalline psilocybin in the form or Polymorph A, 12.5 mg of SMCC 50, 79.5 mg of SMCC 90, 1 mg sodium starch glycolate, 1 mg colloidal silicon dioxide, and 1 mg sodium stearyl fumarate
Adverse events: Throughout the course of the study, all AEs were monitored and recorded. Each AE was classified according to the following criteria: • i. […] Moderate: The AE produces some impairment of functioning, but is not hazardous to the subject's health. • iii. Severe: The AE produces significant impairment of functioning or incapacitation and is a definite hazard to the subject's health.
Visit 3 (V3): Drug Administration (Day 0): The subject was asked to eat a light breakfast at least two hours prior to coming to the clinic for study drug administration. On Day 0 (V3), the subject underwent the SSTS, had vital signs obtained, medications reviewed, AEs recorded and eligibility reviewed prior to being randomized to study drug. The study drug was administered to up to six subjects simultaneously in individual beds separated by a curtain. The subject was invited to put on eyeshades and headphones, lie down and listen to calming music for the rest of the session (six hours). The subject was supported 1:1 with a chaperone and supervised by the study psychiatrist and lead therapist.
During administration of psilocybin, each subject received one-on-one support from a trained assisting therapist and each dosing session was supervised by a study psychiatrist and a lead therapist. The study drug was administered simultaneously to up to six participants as a single 5-capsule oral dose (10 mg psilocybin: 2×5-mg psilocybin capsules plus 3×placebo capsules; 25 mg psilocybin: 5×5-mg psilocybin capsules; placebo: 5×placebo capsules). Twenty-five dosing sessions were completed, with up to six participants dosed simultaneously per session. Each session lasted approximately 6 to 8 hours with subjects encouraged to relax and engage in introspection for the duration. After the acute effects of the study drug had subsided, subjects were discharged.

CN(C)CCc1c[nH]c2cccc(OP(=O)(O)O)c12 [Psilocybin, psilocybin]
Illusion, Events (25 mg oral): 26
Illusion, N (%) (25 mg oral): 18 (60.0)
Illusion, worst severity Mild, Events (25 mg oral): 4
Illusion, worst severity Mild, N (%) (25 mg oral): 3 (10.0)
Illusion, worst severity Moderate, Events (25 mg oral): 12
Illusion, worst severity Moderate, N (%) (25 mg oral): 10 (33.3)
Illusion, worst severity Severe, Events (25 mg oral): 7
Illusion, worst severity Severe, N (%) (25 mg oral): 5 (16.7)
Infections and infestations, Events (25 mg oral): 4
Infections and infestations, N (%) (25 mg oral): 4 (13.3)
Infections and infestations, worst severity Mild, Events (25 mg oral): 4
Infections and infestations, worst severity Mild, N (%) (25 mg oral): 4 (13.3)
Infections and infestations, worst severity Moderate, Events (25 mg oral): 0
Infections and infestations, worst severity Moderate, N (%) (25 mg oral): 0
Infections and infestations, worst severity Severe, Events (25 mg oral): 0
Infections and infestations, worst severity Severe, N (%) (25 mg oral): 0
Investigations, Events (25 mg oral): 1
Investigations, N (%) (25 mg oral): 1 (3.3)
Investigations, worst severity Mild, Events (25 mg oral): 1
Investigations, worst severity Mild, N (%) (25 mg oral): 1 (3.3)
Investigations, worst severity Moderate, Events (25 mg oral): 0
Investigations, worst severity Moderate, N (%) (25 mg oral): 0
Investigations, worst severity Severe, Events (25 mg oral): 0
Investigations, worst severity Severe, N (%) (25 mg oral): 0
Memory impairment, Events (25 mg oral): 0
Memory impairment, N (%) (25 mg oral): 0
Mental fatigue, Events (25 mg oral): 3
Mental fatigue, N (%) (25 mg oral): 3 (10.0)
Mood altered, Events (25 mg oral): 25
Mood altered, N (%) (25 mg oral): 15 (50.0)
Mood altered, worst severity Mild, Events (25 mg oral): 3
Mood altered, worst severity Mild, N (%) (25 mg oral): 2 (6.7)
Mood altered, worst severity Moderate, Events (25 mg oral): 7
Mood altered, worst severity Moderate, N (%) (25 mg oral): 6 (20.0)
Mood altered, worst severity Severe, Events (25 mg oral): 9
Mood altered, worst severity Severe, N (%) (25 mg oral): 7 (23.3)
Musculoskeletal and connective tissue disorders, Events (25 mg oral): 4
Musculoskeletal and connective tissue disorders, N (%) (25 mg oral): 3 (10.0)
Musculoskeletal and connective tissue disorders, worst severity Mild, Events (25 mg oral): 3
Musculoskeletal and connective tissue disorders, worst severity Mild, N (%) (25 mg oral): 2 (6.7)
Musculoskeletal and connective tissue disorders, worst severity Moderate, Events (25 mg oral): 1
Musculoskeletal and connective tissue disorders, worst severity Moderate, N (%) (25 mg oral): 1 (3.3)
Musculoskeletal and connective tissue disorders, worst severity Severe, Events (25 mg oral): 0
Musculoskeletal and connective tissue disorders, worst severity Severe, N (%) (25 mg oral): 0
Nausea, Events (25 mg oral): 3
Nausea, N (%) (25 mg oral): 3 (10.0)
Nervous system disorders, Events (25 mg oral): 43
Nervous system disorders, N (%) (25 mg oral): 25 (83.3)
Nervous system disorders, worst severity Mild, Events (25 mg oral): 24
Nervous system disorders, worst severity Mild, N (%) (25 mg oral): 16 (53.3)
Nervous system disorders, worst severity Moderate, Events (25 mg oral): 10
Nervous system disorders, worst severity Moderate, N (%) (25 mg oral): 8 (26.7)
Nervous system disorders, worst severity Severe, Events (25 mg oral): 1
Nervous system disorders, worst severity Severe, N (%) (25 mg oral): 1 (3.3)
Paraesthesia, Events (25 mg oral): 4
Paraesthesia, N (%) (25 mg oral): 4 (13.3)
Paraesthesia, worst severity Mild, Events (25 mg oral): 3
Paraesthesia, worst severity Mild, N (%) (25 mg oral): 3 (10.0)
Paraesthesia, worst severity Moderate, Events (25 mg oral): 1
Paraesthesia, worst severity Moderate, N (%) (25 mg oral): 1 (3.3)
Paraesthesia, worst severity Severe, Events (25 mg oral): 0
Paraesthesia, worst severity Severe, N (%) (25 mg oral): 0
Psychiatric disorders, Events (25 mg oral): 135
Psychiatric disorders, N (%) (25 mg oral): 29 (96.7)
Psychiatric disorders, worst severity Mild, Events (25 mg oral): 5
Psychiatric disorders, worst severity Mild, N (%) (25 mg oral): 4 (13.3)
Psychiatric disorders, worst severity Moderate, Events (25 mg oral): 45
Psychiatric disorders, worst severity Moderate, N (%) (25 mg oral): 16 (53.3)
Psychiatric disorders, worst severity Severe, Events (25 mg oral): 27
Psychiatric disorders, worst severity Severe, N (%) (25 mg oral): 9 (30.0)
Psychomotor skills impaired, Events (25 mg oral): 0
Psychomotor skills impaired, N (%) (25 mg oral): 0
Respiratory, thoracic and mediastinal disorders, Events (25 mg oral): 3
Respiratory, thoracic and mediastinal disorders, N (%) (25 mg oral): 3 (10.0)
Selected TEAE: Nervous system disorders, Events (25 mg oral): 0
Selected TEAE: Nervous system disorders, N (%) (25 mg oral): 0
Selected TEAE: Psychiatric disorders, Events (25 mg oral): 106
Selected TEAE: Psychiatric disorders, N (%) (25 mg oral): 27 (90.0)
Somatic hallucination, Events (25 mg oral): 6
Somatic hallucination, N (%) (25 mg oral): 5 (16.7)
Somatic hallucination, worst severity Mild, Events (25 mg oral): 2
Somatic hallucination, worst severity Mild, N (%) (25 mg oral): 2 (6.7)
Somatic hallucination, worst severity Moderate, Events (25 mg oral): 2
Somatic hallucination, worst severity Moderate, N (%) (25 mg oral): 2 (6.7)
Somatic hallucination, worst severity Severe, Events (25 mg oral): 2
Somatic hallucination, worst severity Severe, N (%) (25 mg oral): 1 (3.3)
Substance-induced psychotic disorder, Events (25 mg oral): 1
Substance-induced psychotic disorder, N (%) (25 mg oral): 1 (3.3)
Tension headache, Events (25 mg oral): 6
Tension headache, N (%) (25 mg oral): 6 (20.0)
Tension headache, worst severity Mild, Events (25 mg oral): 4
Tension headache, worst severity Mild, N (%) (25 mg oral): 4 (13.3)
Tension headache, worst severity Moderate, Events (25 mg oral): 2
Tension headache, worst severity Moderate, N (%) (25 mg oral): 2 (6.7)
Tension headache, worst severity Severe, Events (25 mg oral): 0
Tension headache, worst severity Severe, N (%) (25 mg oral): 0
Time perception altered, Events (25 mg oral): 6
Time perception altered, N (%) (25 mg oral): 6 (20.0)
Time perception altered, worst severity Mild, Events (25 mg oral): 2
Time perception altered, worst severity Mild, N (%) (25 mg oral): 2 (6.7)
Time perception altered, worst severity Moderate, Events (25 mg oral): 4
Time perception altered, worst severity Moderate, N (%) (25 mg oral): 4 (13.3)
Time perception altered, worst severity Severe, Events (25 mg oral): 0
Time perception altered, worst severity Severe, N (%) (25 mg oral): 0
Adverse events reported by % of subjects (25 mg oral, 12-week study): 96.7%
Reported 'Mood altered' events: Being less judgmental (number) (25 mg psilocybin (n = 30)): 0
Reported 'Mood altered' events: Calm (number) (25 mg psilocybin (n = 30)): 0
Reported 'Mood altered' events: Clarity of thought (number) (25 mg psilocybin (n = 30)): 1
Reported 'Mood altered' events: Contemplative state (number) (25 mg psilocybin (n = 30)): 1
Reported 'Mood altered' events: Feeling more moody/sensitive (number) (25 mg psilocybin (n = 30)): 0
Reported 'Mood altered' events: Feeling of adrenaline release (number) (25 mg psilocybin (n = 30)): 0
Reported 'Mood altered' events: Feeling rested (number) (25 mg psilocybin (n = 30)): 0
Reported 'Mood altered' events: Increased compassion (number) (25 mg psilocybin (n = 30)): 1
Reported 'Mood altered' events: Increased creativity (number) (25 mg psilocybin (n = 30)): 1
Reported 'Mood altered' events: Increased empathy (number) (25 mg psilocybin (n = 30)): 2
Reported 'Mood altered' events: Increased sense of connectedness (number) (25 mg psilocybin (n = 30)): 1
Reported 'Mood altered' events: Increased wit (number) (25 mg psilocybin (n = 30)): 0
Reported 'Mood altered' events: Introspection (number) (25 mg psilocybin (n = 30)): 8
Reported 'Mood altered' events: Laughter (number) (25 mg psilocybin (n = 30)): 1
Reported 'Mood altered' events: More socially upbeat (number) (25 mg psilocybin (n = 30)): 1
Reported 'Mood altered' events: Negative mood (number) (25 mg psilocybin (n = 30)): 0
Reported 'Mood altered' events: Reflections (number) (25 mg psilocybin (n = 30)): 4
Reported 'Mood altered' events: Saw themselves from a new perspective (number) (25 mg psilocybin (n = 30)): 1
Reported 'Mood altered' events: Sense of oneness (number) (25 mg psilocybin (n = 30)): 2
Reported 'Mood altered' events: Sense of openness (number) (25 mg psilocybin (n = 30)): 0
Reported 'Mood altered' events: Unusual appreciation of music (number) (25 mg psilocybin (n = 30)): 0
Adverse events that appeared and resolved on day 0 (day of dosing) (all adverse events, all arms): 67%
'mood altered' AEs positive or neutral in nature (all arms): 96%
Median duration of adverse events (all treatment arms, 12-week trial): one
Incidence of Illusion, Hallucination (visual), Mood altered, Headache, Fatigue and Euphoric mood compared to placebo (both 10 and 25 mg): higher
Adverse events likely to be psychedelic in nature resolved on the day of onset or within a day of onset (human, in vivo, oral, 12 weeks): 92%
